From US8815872B2, “Macrocyclics pyrimidines as aurora kinase inhibitors” (Merck Patent GmbH, priority 2008, dated 2014)

Tests used:
Assay in all cases: Other kinases, single-concentration inhibition (Table 3)
Ret(h) = biological target: T1, Ret(h) (Homo sapiens, UniProt P07949); type: biochemical
T1 construct: purchased Caliper Life Sciences
Method: (§1) The Aurora and other kinase assays described here were performed on two Caliper Life Sciences systems, the LC3000 and the Desktop Profiler. These provide data on enzyme activity via measurement of the relative amounts of phosphorylated or unphosphorylated fluorescently labelled substrate peptide at the end of an enzymatic reaction. These different states of peptide are resolved by applying a potential difference across the sample. The presence of a charged phosphate group on the product (as opposed to the substrate) causes a different peptide mobility between the two peptides. This is visualized by excitation of a fluorescent label on the substrate and product peptides and represented as peaks within the analysis software.
(§2) The Desktop Profiler utilizes the same principal as the LC 3000 for calculating percentage conversion of a substrate to product. Caliper Life Sciences provided proprietary flash frozen pre-made 384 well plates containing selected kinases. Each column in the 384 well plate contained a particular selected kinase. A second plate, the ‘substrate plate’ contained a mix of fluorescently labeled peptide substrate and ATP. These were arranged in columns so that transfer for substrate plate to enzyme plate provided the correct enzyme with the correct substrate/ATP concentration.
(§3) Compounds were added to a thawed enzyme plate in the desired format, in single concentrations. Reactions were initiated by transfer of the ubstrate/ATP mix from the substrate plate. The enzyme plate was incubated for 90 mins at 25 °C. The reaction was stopped by addition of […] of Stop Buffer (100 mM HEPES pH 7.5, 0.015% Brij-35, 10 mM EDTA (Sigma, E7889)).
(§4) Plates were read in a manner identical to that of the LC3000, and the ratio between substrate and product peaks provided the activity of the enzyme in that well. This was best represented by a plate heat map which colors each well by percent inhibition as compared to positive and negative controls (no inhibitors and no ATP respectively).

Met(h) = biological target: T2, Met(h) (Homo sapiens, UniProt P08581); type: biochemical
T2 construct: purchased Caliper Life Sciences
Method: as §1, §2, §3, §4

Tie2(R849W)(h) = biological target: T3, Tie2(R849W)(h) (Homo sapiens, UniProt Q02763, R849W); type: biochemical
T3 construct: purchased Caliper Life Sciences
Method: as §1, §2, §3, §4

IRAK4(h) = biological target: T4, IRAK4(h) (Homo sapiens, UniProt Q9NWZ3); type: biochemical
T4 construct: purchased Caliper Life Sciences
T4 sequence (Q9NWZ3 1-460): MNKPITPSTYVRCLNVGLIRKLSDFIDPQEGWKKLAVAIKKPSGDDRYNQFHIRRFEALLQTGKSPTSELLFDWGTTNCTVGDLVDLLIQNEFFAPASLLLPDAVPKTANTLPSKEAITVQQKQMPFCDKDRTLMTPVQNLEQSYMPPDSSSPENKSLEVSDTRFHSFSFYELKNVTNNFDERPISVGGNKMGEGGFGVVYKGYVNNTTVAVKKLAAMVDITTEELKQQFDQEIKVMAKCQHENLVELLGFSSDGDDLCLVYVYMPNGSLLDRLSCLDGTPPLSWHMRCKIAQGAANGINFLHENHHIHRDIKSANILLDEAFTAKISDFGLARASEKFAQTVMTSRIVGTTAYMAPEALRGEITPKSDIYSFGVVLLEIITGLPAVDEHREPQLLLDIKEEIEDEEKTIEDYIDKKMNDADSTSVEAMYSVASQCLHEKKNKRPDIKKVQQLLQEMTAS
Method: as §1, §2, §3, §4

FGFR4(h) = biological target: T5, FGFR4(h) (Homo sapiens, UniProt P22455); type: biochemical
T5 construct: purchased Caliper Life Sciences
Method: as §1, §2, §3, §4

Flt3(h) = biological target: T6, Flt3(h) (Homo sapiens, UniProt P36888); type: biochemical
T6 construct: purchased Caliper Life Sciences
T6 sequence (P36888 27-993): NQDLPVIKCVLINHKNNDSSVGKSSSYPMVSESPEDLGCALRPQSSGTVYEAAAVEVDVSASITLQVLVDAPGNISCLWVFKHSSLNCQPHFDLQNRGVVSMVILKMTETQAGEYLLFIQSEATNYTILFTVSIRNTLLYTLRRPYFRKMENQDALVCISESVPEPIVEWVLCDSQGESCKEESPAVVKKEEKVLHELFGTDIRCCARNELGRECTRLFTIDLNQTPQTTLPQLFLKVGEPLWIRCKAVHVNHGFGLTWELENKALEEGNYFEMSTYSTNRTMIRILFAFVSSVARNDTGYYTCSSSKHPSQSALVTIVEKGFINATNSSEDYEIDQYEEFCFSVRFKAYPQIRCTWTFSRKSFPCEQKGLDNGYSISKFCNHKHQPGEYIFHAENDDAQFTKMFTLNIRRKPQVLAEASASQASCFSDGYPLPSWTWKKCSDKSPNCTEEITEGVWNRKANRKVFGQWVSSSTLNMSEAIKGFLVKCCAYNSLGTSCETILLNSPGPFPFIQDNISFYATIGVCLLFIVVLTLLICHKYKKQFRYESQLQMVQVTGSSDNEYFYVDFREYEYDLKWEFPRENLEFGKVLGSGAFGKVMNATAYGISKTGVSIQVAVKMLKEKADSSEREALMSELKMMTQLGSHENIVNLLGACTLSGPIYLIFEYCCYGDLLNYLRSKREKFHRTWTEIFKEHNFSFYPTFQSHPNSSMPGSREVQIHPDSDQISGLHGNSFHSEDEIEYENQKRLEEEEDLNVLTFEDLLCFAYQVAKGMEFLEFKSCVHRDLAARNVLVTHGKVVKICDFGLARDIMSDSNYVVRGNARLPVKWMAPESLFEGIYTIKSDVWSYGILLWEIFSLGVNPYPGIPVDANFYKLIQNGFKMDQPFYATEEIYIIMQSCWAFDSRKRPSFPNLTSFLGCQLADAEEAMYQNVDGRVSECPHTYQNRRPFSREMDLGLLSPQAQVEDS
Method: as §1, §2, §3, §4

Abl(T315I)(h) = biological target: T7, Abl(T315I)(h) (Homo sapiens, UniProt P00519, T315I); type: biochemical
T7 construct: purchased Caliper Life Sciences
Method: as §1, §2, §3, §4

cKit(D816V)(h) = biological target: T8, cKit(D816V)(h) (Homo sapiens, UniProt P10721, D816V); type: biochemical
T8 construct: purchased Caliper Life Sciences
Method: as §1, §2, §3, §4

AMPK(r) = type: biochemical, rat
Method: as §1, §2, §3, §4

T2 sequence (P08581 25-1390): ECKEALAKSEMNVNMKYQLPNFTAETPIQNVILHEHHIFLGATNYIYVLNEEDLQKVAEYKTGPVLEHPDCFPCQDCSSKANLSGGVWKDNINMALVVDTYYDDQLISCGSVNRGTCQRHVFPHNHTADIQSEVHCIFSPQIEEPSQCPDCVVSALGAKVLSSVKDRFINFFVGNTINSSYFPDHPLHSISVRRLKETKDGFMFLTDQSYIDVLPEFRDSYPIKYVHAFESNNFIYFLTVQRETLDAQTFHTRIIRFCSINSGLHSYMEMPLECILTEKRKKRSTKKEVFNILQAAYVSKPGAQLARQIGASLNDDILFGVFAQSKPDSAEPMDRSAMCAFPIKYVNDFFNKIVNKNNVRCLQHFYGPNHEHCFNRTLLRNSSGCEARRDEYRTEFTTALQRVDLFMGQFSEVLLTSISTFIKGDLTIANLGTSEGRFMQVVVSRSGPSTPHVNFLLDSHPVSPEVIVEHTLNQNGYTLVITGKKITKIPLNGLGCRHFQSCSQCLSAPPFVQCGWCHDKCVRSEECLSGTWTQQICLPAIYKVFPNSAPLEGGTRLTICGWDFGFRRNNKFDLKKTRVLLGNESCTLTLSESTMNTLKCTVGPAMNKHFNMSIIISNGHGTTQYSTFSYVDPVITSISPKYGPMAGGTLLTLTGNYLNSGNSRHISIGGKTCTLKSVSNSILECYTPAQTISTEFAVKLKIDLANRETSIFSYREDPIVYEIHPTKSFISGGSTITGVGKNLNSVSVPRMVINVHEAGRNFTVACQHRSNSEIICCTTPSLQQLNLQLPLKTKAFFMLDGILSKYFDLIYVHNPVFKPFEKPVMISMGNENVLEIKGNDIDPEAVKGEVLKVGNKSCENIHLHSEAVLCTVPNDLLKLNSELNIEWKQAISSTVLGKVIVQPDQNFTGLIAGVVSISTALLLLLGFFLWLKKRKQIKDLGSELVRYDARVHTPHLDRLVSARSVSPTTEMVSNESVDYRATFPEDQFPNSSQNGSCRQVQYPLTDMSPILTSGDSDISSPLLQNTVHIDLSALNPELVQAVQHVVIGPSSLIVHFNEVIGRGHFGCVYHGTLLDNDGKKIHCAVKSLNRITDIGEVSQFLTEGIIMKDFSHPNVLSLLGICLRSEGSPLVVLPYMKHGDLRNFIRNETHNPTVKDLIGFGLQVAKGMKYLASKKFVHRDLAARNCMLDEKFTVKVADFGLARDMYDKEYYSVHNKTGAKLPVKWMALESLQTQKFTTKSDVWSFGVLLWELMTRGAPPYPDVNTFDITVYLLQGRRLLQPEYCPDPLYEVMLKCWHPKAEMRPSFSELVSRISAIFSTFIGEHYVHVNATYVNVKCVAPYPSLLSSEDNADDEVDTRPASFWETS
T8 sequence (P10721 26-976 D816V): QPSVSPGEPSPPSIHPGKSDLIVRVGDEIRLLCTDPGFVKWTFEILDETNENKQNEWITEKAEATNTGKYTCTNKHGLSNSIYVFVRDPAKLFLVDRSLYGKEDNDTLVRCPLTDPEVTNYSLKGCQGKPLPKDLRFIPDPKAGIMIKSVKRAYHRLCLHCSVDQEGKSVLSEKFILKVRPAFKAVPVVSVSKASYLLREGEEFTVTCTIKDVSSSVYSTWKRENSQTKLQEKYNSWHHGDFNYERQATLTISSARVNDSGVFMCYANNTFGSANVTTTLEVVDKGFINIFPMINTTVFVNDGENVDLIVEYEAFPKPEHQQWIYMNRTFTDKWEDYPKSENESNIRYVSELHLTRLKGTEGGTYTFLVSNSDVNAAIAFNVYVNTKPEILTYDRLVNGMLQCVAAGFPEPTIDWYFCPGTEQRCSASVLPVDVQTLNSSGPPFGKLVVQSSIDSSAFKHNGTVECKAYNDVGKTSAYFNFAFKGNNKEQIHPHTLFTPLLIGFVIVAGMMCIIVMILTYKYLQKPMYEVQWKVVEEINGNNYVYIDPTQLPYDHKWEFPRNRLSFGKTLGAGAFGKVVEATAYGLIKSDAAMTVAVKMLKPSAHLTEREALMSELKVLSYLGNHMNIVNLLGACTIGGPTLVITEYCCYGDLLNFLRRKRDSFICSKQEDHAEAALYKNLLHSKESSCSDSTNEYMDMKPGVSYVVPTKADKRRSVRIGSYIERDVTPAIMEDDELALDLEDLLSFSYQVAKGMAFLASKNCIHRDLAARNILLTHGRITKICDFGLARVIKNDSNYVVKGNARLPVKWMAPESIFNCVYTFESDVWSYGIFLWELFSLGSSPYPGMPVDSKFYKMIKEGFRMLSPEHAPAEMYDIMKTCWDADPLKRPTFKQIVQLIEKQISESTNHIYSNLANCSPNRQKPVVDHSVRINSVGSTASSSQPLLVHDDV
T5 sequence (P22455 22-802): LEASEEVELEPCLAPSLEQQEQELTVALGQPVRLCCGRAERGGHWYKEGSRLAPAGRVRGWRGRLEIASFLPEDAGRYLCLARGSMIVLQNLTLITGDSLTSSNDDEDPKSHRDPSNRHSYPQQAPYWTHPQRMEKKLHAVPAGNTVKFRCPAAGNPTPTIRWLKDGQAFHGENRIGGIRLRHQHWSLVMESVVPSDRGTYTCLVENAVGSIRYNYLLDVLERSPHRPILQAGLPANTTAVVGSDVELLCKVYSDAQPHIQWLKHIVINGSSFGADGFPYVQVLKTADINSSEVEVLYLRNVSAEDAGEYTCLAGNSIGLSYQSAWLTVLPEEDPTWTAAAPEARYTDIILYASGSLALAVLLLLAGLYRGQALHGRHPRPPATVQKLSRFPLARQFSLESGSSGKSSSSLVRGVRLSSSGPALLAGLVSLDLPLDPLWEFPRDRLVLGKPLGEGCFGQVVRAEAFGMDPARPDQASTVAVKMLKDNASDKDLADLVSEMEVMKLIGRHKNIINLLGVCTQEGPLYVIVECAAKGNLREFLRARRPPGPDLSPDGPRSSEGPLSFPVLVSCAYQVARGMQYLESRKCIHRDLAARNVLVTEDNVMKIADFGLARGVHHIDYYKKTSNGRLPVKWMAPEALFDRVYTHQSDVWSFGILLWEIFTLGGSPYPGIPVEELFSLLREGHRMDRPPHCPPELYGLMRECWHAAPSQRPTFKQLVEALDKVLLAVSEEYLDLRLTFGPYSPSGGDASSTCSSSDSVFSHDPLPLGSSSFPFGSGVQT
T3 sequence (Q02763 23-1124 R849W): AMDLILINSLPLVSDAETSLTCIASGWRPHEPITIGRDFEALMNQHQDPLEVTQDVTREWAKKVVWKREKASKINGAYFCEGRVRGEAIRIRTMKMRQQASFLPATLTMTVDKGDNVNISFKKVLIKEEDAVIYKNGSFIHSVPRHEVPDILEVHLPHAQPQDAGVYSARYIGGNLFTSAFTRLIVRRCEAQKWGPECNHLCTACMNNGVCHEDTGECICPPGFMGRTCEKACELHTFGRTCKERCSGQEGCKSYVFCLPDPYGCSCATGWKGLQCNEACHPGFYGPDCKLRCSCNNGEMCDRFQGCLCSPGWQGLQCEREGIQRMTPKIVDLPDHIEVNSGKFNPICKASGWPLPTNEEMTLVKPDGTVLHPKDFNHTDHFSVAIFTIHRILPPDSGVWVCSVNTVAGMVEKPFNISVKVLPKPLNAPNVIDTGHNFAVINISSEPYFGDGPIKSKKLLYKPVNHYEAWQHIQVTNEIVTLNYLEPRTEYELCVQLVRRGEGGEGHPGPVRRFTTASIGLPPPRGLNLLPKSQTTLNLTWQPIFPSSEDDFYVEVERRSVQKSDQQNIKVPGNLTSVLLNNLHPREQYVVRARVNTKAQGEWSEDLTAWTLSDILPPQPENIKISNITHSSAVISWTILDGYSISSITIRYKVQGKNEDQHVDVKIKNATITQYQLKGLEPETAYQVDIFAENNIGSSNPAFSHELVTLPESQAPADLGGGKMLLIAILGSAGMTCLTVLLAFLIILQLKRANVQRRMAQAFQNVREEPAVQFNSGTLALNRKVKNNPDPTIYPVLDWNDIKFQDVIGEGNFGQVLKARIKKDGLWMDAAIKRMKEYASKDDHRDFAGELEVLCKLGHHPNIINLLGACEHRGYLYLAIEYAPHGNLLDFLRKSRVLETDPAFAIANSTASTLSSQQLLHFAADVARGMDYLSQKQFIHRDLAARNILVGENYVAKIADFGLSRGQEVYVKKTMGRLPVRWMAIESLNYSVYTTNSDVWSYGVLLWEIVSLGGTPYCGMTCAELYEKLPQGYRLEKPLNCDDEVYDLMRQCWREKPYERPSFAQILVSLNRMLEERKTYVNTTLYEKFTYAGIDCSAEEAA

Row | Structure (SMILES) | % inhibition Ret(h) (Ret(h); 1 μM) | % inhibition Met(h) (Met(h); 1 μM) | % inhibition Tie2(R849W)(h) (Tie2(R849W)(h); 1 μM) | % inhibition IRAK4(h) (IRAK4(h); 1 μM) | % inhibition FGFR4(h) (FGFR4(h); 1 μM) | % inhibition Flt3(h) (Flt3(h); 1 μM) | % inhibition Abl(T315I)(h) (Abl(T315I)(h); 1 μM) | % inhibition cKit(D816V)(h) (cKit(D816V)(h); 1 μM) | % inhibition AMPK(r) (AMPK(r); 1 μM) | % inhibition Ret(h) (Ret(h); 10 μM) | % inhibition Met(h) (Met(h); 10 μM) | % inhibition Tie2(R849W)(h) (Tie2(R849W)(h); 10 μM) | % inhibition IRAK4(h) (IRAK4(h); 10 μM) | % inhibition FGFR4(h) (FGFR4(h); 10 μM) | % inhibition Flt3(h) (Flt3(h); 10 μM) | % inhibition Abl(T315I)(h) (Abl(T315I)(h); 10 μM) | % inhibition cKit(D816V)(h) (cKit(D816V)(h); 10 μM) | % inhibition AMPK(r) (AMPK(r); 10 μM)
1 | NC(=O)[C@H]1[C@H]2C[C@H]3[C@H]1Nc1nc(ncc1F)Nc1cccc(c1)C(=O)CS[C@@H]3C2 [Example 11] | 56% | 125% | 103% | 90% | 100% | 102% | 95% | 102% | 97% |  |  |  |  |  |  |  |  | 
2 | N#Cc1ccc2cc1NC(=O)CS[C@@H]1C[C@@H]3C[C@H]1[C@@H](Nc1nc(ncc1F)N2)[C@H]3C(N)=O [Example 26] | 50% | 9% | 26% | 43% | 53% | 93% | 2% | 112% | 79% |  |  |  |  |  |  |  |  | 
3 | CC[C@@H]1C[C@@H]2/C=C\COc3cccc(c3)Nc3ncc(F)c(n3)N[C@H]2[C@H]1C(N)=O (single isomer, unassigned) [Example 6] | 12% | 122% | 91% | 52% | 96% | 116% | 89% | 96% | 51% |  |  |  |  |  |  |  |  | 
4 | CN1CCN(c2ccc3cc2NC(=O)CS[C@@H]2C[C@@H]4C[C@H]2[C@@H](Nc2nc(ncc2F)N3)[C@H]4C(N)=O)CC1 [Example 24] | 1% | 63% | 28% | 19% | 50% | 21% | 0% | 97% | 68% |  |  |  |  |  |  |  |  | 
5 | O=C(O)[C@H]1[C@H]2C[C@H]3[C@H]1Nc1nc(ncc1F)Nc1cccc(c1)OCCS[C@@H]3C2 [Example 21] |  |  |  |  |  |  |  |  |  | 35% | 30% | 35% | 31% | 81% | 2% | 38% | 104% | 57%
6 | CN1CCN(c2ccc3cc2OCCS[C@@H]2C[C@@H]4C[C@H]2[C@@H](Nc2nc(ncc2F)N3)[C@H]4C(N)=O)CC1 [Example 22] | 4% | 46% | 57% | 52% | 87% | 24% | 13% | 112% | 65% |  |  |  |  |  |  |  |  | 
7 | NC(=O)[C@H]1[C@H]2C[C@H]3[C@H]1Nc1nc(ncc1F)Nc1cccc(c1)NC(=O)CS[C@@H]3C2 [Example 27] | 4% | 69% | 17% | 12% | 96% | 66% | 1% | 95% | 71% |  |  |  |  |  |  |  |  | 
8 | NC(=O)[C@H]1[C@H]2C[C@H]3[C@H]1Nc1nc(ncc1F)Nc1cccc(c1)CSS[C@@H]3C2 [Example 10] | 7% | 41% | 41% | 3% | 128% | 65% | 47% | 96% | 86% |  |  |  |  |  |  |  |  | 
9 | C=C[C@@H]1C[C@@H]2/C=C/COc3cccc(c3)Nc3ncc(F)c(n3)N[C@H]2[C@H]1C(N)=O (single isomer, unassigned) [Example 3] | 78% | 115% | 93% | 82% | 122% | 98% | 92% | 77% | 92% |  |  |  |  |  |  |  |  | 
10 | CC[C@@H]1C[C@@H]2CCCOc3cccc(c3)Nc3ncc(F)c(n3)N[C@H]2[C@H]1C(N)=O (single isomer, unassigned) [Example 5] | 52% | 114% | 92% | 81% | 94% | 117% | 103% | 103% | 58% |  |  |  |  |  |  |  |  | 
